According to PMC4210897, “Antimicrobial Activity of Peptides Derived from Olive Flounder Lipopolysaccharide Binding Protein/Bactericidal Permeability-Increasing Protein (LBP/BPI)” (Marine Drugs, 2014):
Where no end group is shown, it is not given here.

Legend:
[1] = tested on: E. coli D31; assay: URDA, MEC; type: cell-based, Escherichia coli; details: E. coli D31, Gram −, pH 6.6, 37 °C, triplicate averaged
Procedure: (§1) The antimicrobial activity of the purified peptide was assessed as described previously. We tested the synthetic peptides against several Gram-positive bacteria including two Bacillus subtilis strains, Micrococcus luteus, Staphylococcus aureus, and Streptococcus iniae, Gram-negative bacteria including three Escherichia coli strains, Aeromonas hydrophila, Edwardsiella tarda, Pseudomonas aeruginosa, Vibrio parahemolyticus, and Salmonella enteric, as well as the yeast Candida albicans. All strains were grown overnight for 18 h in trypticase soy broth (TSB) or sabouraud dextrose broth (SDB) at the appropriate temperature (25 °C for A. hydrophila, E. tarda, P. aeruginosa, S. iniae, and V. parahemolyticus and 37 °C for the other strains). After an overnight incubation, the bacterial and C. albicans suspensions were diluted to a McFarland turbidity standard of 0.5 (Vitek Colorimeter #52-1210; Hach, Loveland, CO, USA) corresponding to ~10^8 CFU/mL for bacteria and ~10^6 CFU/mL for C. albicans. One-half milliliter of diluted bacterial or C. albicans suspension was added to 9.5 mL of underlay gel containing 5 × 10^6 CFU/mL or 5 × 10^4 CFU/mL in 10 mM phosphate buffer (PB; pH 6.6) with 0.03% TSB or 0.03% SDB and 1% Type I (low EEO) agarose. The purified peptide was serially diluted twofold in 5 μL of acidified water (0.01% HAc), and each dilution was added to 2.5-mm-diameter wells made in the 1-mm-thick underlay gels. After incubation for 3 h at either 25 °C (for A. hydrophila, E. tarda, P. aeruginosa, S. iniae, and V. parahemolyticus) or 37 °C (the other strains), the bacterial or yeast suspension was overlaid with 10 mL of double-strength overlay gel containing 6% TSB or 6% SDB with 10 mM PB (pH 6.6) in 1% agarose. Plates were incubated for an additional 18–24 h, after which the clearing zone diameters were measured. After subtracting the diameter of the well, the clearing zone diameter was expressed in units (0.1 mm = 1 U).
All tested bacteria and yeast were prepared as described above. The minimal effective concentration (MEC, μg/mL) of the synthetic peptides was calculated as the x-intercept of a plot of units against the log10 of the peptide concentration. […] The antimicrobial assay was performed in triplicate and the results were averaged.

[2] = tested on: C. albicans; assay: URDA of non-heated and heated peptides; type: cell-based, Candida albicans; details: non-heated and after 100 °C for 10 min
Procedure: as §1
(§2) To investigate the effect of temperature on ofLBP analogs, antimicrobial activity was tested using an ultrasensitive radial diffusion assay (URDA) against two bacteria including V. harveyi and S. iniae, as well as a yeast, C. albicans. To explore thermal stability, the ofLBP analogs were incubated at 100 °C for 10 min. After heat treatment, the peptides were cooled and used for URDA as described above.

[3] = tested on: human red blood cells (RBCs, blood type O); assay: Hemolytic activity assay; type: cell-based; details: 3% hematocrit, 60 min, 37 °C; for Hemolysis against RBCs up to 100 μg/mL: A405, up to concentrations of 100 μg/mL, triplicate averaged
Procedure: The hemolytic activity of the peptides was determined using human red blood cells (RBCs, blood type O). The RBCs were collected from citric acid-treated blood by centrifugation at 3000× g for 5 min and washed three times with 10 mM PB (pH 7.4) containing 150 mM NaCl to remove the plasma and buffy coat. A suspension of 3% hematocrit in buffer with or without peptides was incubated for 60 min at 37 °C. Hemolysis was expressed as the hemoglobin content obtained from the absorbance of the supernatant at 405 nm after centrifugation at 3000× g for 5 min. A 100% hemolysis was determined based on hemoglobin release after the addition of 0.1% Triton X-100. The hemolysis percentage of the peptides was calculated using the following formula: % Hemolysis = [(Abs405nm in the peptide solution − Abs405nm in buffer)/(Abs405nm in 0.1% Triton X-100 − Abs405nm in buffer)] × 100
Hemolytic assays were performed in triplicate and the results were averaged.

[4] = tested on: S. iniae; assay: URDA of non-heated and heated peptides; type: cell-based, Streptococcus iniae; details: non-heated and after 100 °C for 10 min
Procedure: as §1, §2

[5] = tested on: DNA polymerase; details: PCR of E. coli 16S rDNA; for DNA polymerase inhibitory ability: 100 ng genomic DNA, 30 cycles
Procedure: The ofLBP analogs were dissolved in 0.01% acetic acid at a concentration of 1000 μg/mL. To assess PCR inhibition, various concentrations of the ofLBP analogs (2.5, 1.25, 0.625, and 0.313 μg/mL) were added to the respective reaction mixtures. E. coli genomic DNA (100 ng) was used as a template for PCR with the following primer pairs: 16S-F1, 5′-[…]-3′ and 16S-R3, 5′-[…]-3′. The predicted amplicon is ~1.5 kb in length. Each PCR comprised 30 cycles each of 30 s at 95 °C, 30 s at 55 °C, and 1 min at 72 °C. After PCR, all amplicons were electrophoresed in 1.0% agarose gels containing EtBr.

[6] = tested on: E. coli ML35p; assay: Killing kinetic assay; type: cell-based, Escherichia coli; details: 10^6 CFU/mL, 37 °C; for Time to kill E. coli ML35p at 5× MEC: triplicate averaged
Procedure: (§3) To determine the killing activities of ofLBP-derived analogs, kinetic studies were performed using B. subtilis KCTC1021 and E. coli ML35p at 1× MEC and 5× MEC concentrations. Overnight culture of B. subtilis KCTC1021 and E. coli ML35p were diluted in TBS to a cell density of 10^6 CFU/mL and 1 mL of each suspension was exposed to each ofLBP-derived analog and incubated at 37 °C overnight. The resulting colonies were counted. Percent killing was calculated as the proportion of live bacteria at a given time point following the addition of peptide compared to the number of bacteria present prior to the addition of peptide. Control cultures of each bacterium were incubated without any peptide and assayed at time points corresponding to the test culture assays to ensure no spontaneous loss of viability. Killing kinetic assays were also performed in triplicate, and the results were averaged.

[7] = tested on: B. subtilis KCTC1021; assay: Killing kinetic assay; type: cell-based, Bacillus subtilis; details: 10^6 CFU/mL, 37 °C, triplicate averaged
Procedure: as §3

[8] = tested on: λ-HindIII-digested DNA; assay: DNA-binding assay (gel retardation, EMSA); details: λ-HindIII-digested DNA 50 ng, 5 min room temperature, 1.0% agarose; for Electrophoretic mobility of DNA at 0.625 μg peptide: peptide 0.625 μg
Procedure: DNA binding assays were performed as described previously with minor modifications. This test assessed peptide-DNA binding by examining the inhibition of the rate of migration of DNA bands through agarose gels. A commercial molecular weight marker, λ-HindIII-digested DNA (50 ng) (Roche, Basel, Switzerland), was mixed with varying amounts of peptide (0 μg, 0.156 μg, 0.313 μg, 0.625 μg, and 1.25 μg) in 0.01% acetic acid, incubated at room temperature for 5 min, and then electrophoresed in 1.0% agarose gels containing 0.5 μg/mL ethidium bromide (EtBr).

Substance | Minimal Effectives Concentration [1] | Antimicrobial activity against C. albicans (URDA) [2] | Hemolytic activity at 50 μg/mL [3] | Antimicrobial activity against S. iniae (URDA) [4] | DNA polymerase inhibitory ability [5] | DNA polymerase inhibition at all tested concentrations ([5]; 0.313–2.5 μg peptide) | Killing of E. coli ML35p at 1× MEC [6] | Time to kill E. coli ML35p at 5× MEC [6] | Time to kill B. subtilis KCTC1021 at 1× MEC [7] | Time to kill B. subtilis KCTC1021 at 5× MEC [7] | Electrophoretic mobility of DNA at 0.625 μg peptide [8] | Hemolytic activity from 50–100 μg/mL ([3]; concentrations of 50–100 μg/mL, 100% = 0.1% Triton X-100) | DNA polymerase inhibition at 1.25 μg ([5]; 1.25 μg peptide, compared to ofLBP 6A) | Hemolysis against RBCs up to 100 μg/mL [3] | Electrophoretic mobility of DNA at 1.25 μg peptide ([8]; peptide 1.25 μg)
RFPGLMMKLLV-NH2 (C-terminus assumed) [ofLBP 1N] | 1.3 µg/mL | significant activity | did not show significant hemolytic activity | significant activity | – | – | – | – | – | – | – | – | – | – | –
MKLVKTWLKVLK-NH2 [ofLBP 6A] | 2.6 µg/mL | significant activity | did not show significant hemolytic activity | significant activity | strong DNA polymerase inhibitory ability | complete inhibitory activity | did not kill | ≤ 60 min | ≤ 40 min | ≤ 10 min | almost completely inhibited | – | – | – | –
RFPKLMMKLLV-NH2 [ofLBP 2A] | 0.5 µg/mL | significant activity | did not show significant hemolytic activity | significant activity | – | – | – | – | – | – | – | 28%–50% | – | – | –
KLVKTWLKVLK [ofLBP 5A] | 0.9 µg/mL | significant activity | – | – | strong DNA polymerase inhibitory ability | – | – | – | – | – | almost completely inhibited | – | less inhibitory activity | did not cause hemolysis | –
Piscidin 1 [reference compound] | 2.0 µg/mL | – | – | – | – | – | did not kill | ≤ 40 min | ≤ 40 min | ≤ 10 min | – | – | – | – | –
KLVKTQLKVLK [ofLBP 4N] | – | did not show any antimicrobial activity | – | did not show any antimicrobial activity | no DNA polymerase inhibitory ability | – | – | – | – | – | slightly inhibited | – | – | did not cause hemolysis | almost completely inhibited
